In US8652846B2, “Medium derived from stem cells as a pharmaceutical composition” (Omnicyte Limited, priority 2008, dated 2014):

Columns and labels:
[1] = test system: A549 lung cancer cell line; experiment: Apoptosis of A549 cells with OmniCytes in Transwell assay (no cell contact), FACS Annexin V/7-AAD; format: cell-based, human; conditions: A549, control group: staurosporine alone, Transwell with membrane
Protocol: (§1) Human non-small-cell lung cancer line A549 was obtained from American Type Culture Collection (catalogue number CCL-185, Rockville, Md., USA) and grown in Ham's F 12-K medium supplemented with 10% fetal bovine serum and 1% penicillin/streptomycin in a 37° C. humidified incubator with 5% CO2.
(§2) 3×10^5 cancer cells were plated into the bottom of 24 mm Transwell 6 well plates with or without […] pore polycarbonate membrane insert (Corning Life Sciences, USA) with 2 mL of the appropriate cell culture medium. […]
(§3) To determine effect of OmniCytes on apoptosis, 3×10^5 OmniCytes were added 24 hours after the onset of apoptosis induction either to the top of the Transwell insert with 1 ml α-MEM (Gibco, UK) supplemented with 30% FBS (Gibco, UK) and 10% GM-MIX (for no contact conditions) or directly into the same well as the cells (for contact conditions). […] After 24 or 48 hours the inserts were removed and the cancer cells analysed for apoptosis and Bcl-2, Bcl-xL and Bax expression.
(§4) Apoptosis was analysed using the method of staining with fluorescein isothiocyanate (FITC)-Annexin V and 7-AAD-FITC previously described by Ikewaki et al. (2007). […] FITC-Annexin V staining was measured in FL1-H and FITC-7-AAD staining in FL3-H. […]

[2] = test system: A549 lung cancer cells; experiment: TNF-alpha blocking antibody study: A549 cells with staurosporine and OmniCytes without direct cell contact; format: cell-based, human; conditions: A549, control: staurosporine, OmniCyte-free
Protocol: The effect of TNF-alpha blocking antibodies was tested. A549 lung cancer cells were exposed to staurosporine and OmniCytes were added without direct cell contact. The control was OmniCyte-free. TNF-alpha blocking antibodies (Abeam™, Cambridge, UK) at two different concentrations (5 or 10 μg/mL) were added.

[3] = test system: A549 lung cancer cell line; experiment: Apoptosis of A549 cells with OmniCytes in Transwell assay (no cell contact), DAPI nuclear staining, immuno-fluorescent microscopy; format: cell-based, human; conditions: A549, control group: staurosporine alone
Protocol: 3×10^5 cancer cells were plated into the bottom of 24 mm Transwell 6 well plates with or without […] pore polycarbonate membrane insert (Corning Life Sciences, USA) with 2 mL of the appropriate cell culture medium. Transwell plates with a polycarbonate membrane insert allow the exchange of soluble factors but prevent cell-cell contact, whereas Transwell plates without the membrane allow cell to cell contact. After 24 hours apoptosis was induced in cancer cells according to the designated protocol. Cells were incubated at 37° C. in 5% CO2/95% air. […]
as §3
10^5 cells were fixed using 4% paraformaldehyde (PFA) for 15 minutes at room temperature and washed 3 times with PBS (Gibco, UK). […] Cells were visualised on a Zeiss fluorescent microscope and analysed using the Metamorph programme. […]
For each sample, a minimum of 5 random fields were assessed and at least 250 cells were counted. […]

[4] = test system: A549 lung cancer cell line; experiment: Apoptosis of A549 cells co-cultured with OmniCytes (direct cell contact), FACS Annexin V/7-AAD; format: cell-based, human; conditions: A549, control group: staurosporine alone, plate without membrane
Protocol: as §1, §2, §3, §4

[5] = test system: Rat liver cells; experiment: Bilirubin levels of liver cells exposed to thioacetamide, OmniCytes without cell contact; format: cell-based; conditions: liver cells exposed to TAA only
Protocol: (§5) Rat liver cells were exposed to the hepatotoxin thioacetamide (TAA), which induces liver damage such as cirrhosis and fibrosis. The control was only exposed to TAA, whereas the experimental group was also exposed to OmniCytes without cell contact. Cell viability (expressed as mitochondrial dehydrogenase activity) was assessed.
Liver function was also assayed by measuring bilirubin levels. Aberrantly high levels of bilirubin are typically indicative of a liver disorder or malfunction.

[6] = test system: Rat liver cells; experiment: Viability of liver cells exposed to thioacetamide (mitochondrial dehydrogenase activity), OmniCytes without cell contact; format: cell-based; conditions: rat liver cells exposed to TAA only
Protocol: as §5

Structure (SMILES)	apoptosis (Annexin V positive cells) [1]	apoptosis [2]	apoptosis by nuclear staining (DAPI) [3]	mean of apoptosis (Annexin V positive cells) [4]	bilirubin levels [5]	cell viability (mitochondrial dehydrogenase activity) [6]
CN[C@@H]1C[C@H]2O[C@@](C)([C@@H]1OC)n1c3ccccc3c3c4c(c5c6ccccc6n2c5c31)C(=O)NC4 [staurosporine]	26.85%±2.15	22.13%±0.74	18.32%±1.81	22.77%±4.87	–	–
CC(=N)S [TAA, thioacetamide]	–	–	–	–	caused bilirubin levels to rise	significantly decreased cell viability
